Assay results as given in article PMC7389528, “Anti-tubercular derivatives of rhein require activation by the monoglyceride lipase Rv0183” (The Cell Surface, 2020).
Values after ≈ are worked out from the molar mass of the structure shown. Read-outs that look alike come from different tables or passages of the source.

Key:
[1] = test system: Mtb H37Rv; test: microbe, parasite or virus in culture; assay type: cell-based; details: Mycobacterium tuberculosis
[2] = test system: Vero cells; test: cells; assay type: cell-based; details: Chlorocebus sabaeus, MTT, cytotoxicity
[3] = 50 mM Tris pH 7.5, 200 mM NaCl, no enzyme, 37 °C, 1 h
[4] = Liver microsome stability assay, mouse; assay type: in vitro ADME, male CD-1 mouse; details: MLM, with NADPH, after 30 min, 1 μM compound
Experimental: (§1) The assay was performed with liver microsomes from male CD-1 mouse (Xenotech) and pooled human (Bioreclamation). Compounds HTB-03, HTB-04 and HTB-05 were tested at 1 μM with a final concentration of microsomal protein of 1 mg/mL. The reaction was initiated by the addition of NADPH (1 mM), and samples were incubated for up to […] at 37 °C in a shaking incubator. The reaction was terminated at 0, 5, 15 and 30 min by the addition of ice-cold ACN/MeOH (50:50) spiked with internal standard. Samples were centrifuged at 4000 rpm at 4 °C for 15 min and the supernatants analyzed by LC-MS/MS. The assay evaluated the metabolic stability of compounds by measuring the amount of parent remaining to test compounds with or without NADPH cofactor. LC-MS/MS: AB Sciex 4500 Qtrap; Kinetex 2.6 μm C18 100 Å column (3.0 mm × 30 mm); mobile phase A, 0.1% formic acid in H2O; mobile phase B, 0.1% formic acid in ACN; flow rate, 0.8 mL/min; room temperature.

[5] = Liver microsome stability assay, human; assay type: in vitro ADME; details: HLM, with NADPH, after 30 min, 1 μM compound
Experimental: as §1

[6] = 50 mM Tris pH 7.5, 200 mM NaCl, 2% DMSO
[7] = test system: Mtb; set-up: method as in Gajadeera et al., 2015; details: ref Gajadeera et al., 2015, cited from earlier work

| Compound | MIC [1] | IC50 [2] | stability in the assay conditions (TLC) [3] | Substrate remaining [4] | Substrate remaining [5] | solubility in the assay conditions [6] | anti-tubercular activity [7] | anti-tubercular activity ([7]; listed as rhein) |
| --- | --- | --- | --- | --- | --- | --- | --- | --- |
| CC(=O)Oc1cccc2c1C(=O)c1c(OC(C)=O)cc(C(=O)O)cc1C2=O [Diacerein, diacerein, reference compound] | > 86.9 µM | 161 µM | degraded to rhein | – | – | – | – | – |
| COC(=O)c1cc(O)c2c(c1)C(=O)c1cccc(O)c1C2=O [HTB-01] | 6.37 µM (≈ 1.9 µg/mL) | > 215 µM | – | – | – | – | – | – |
| COC(=O)c1cc(OC(C)=O)c2c(c1)C(=O)c1cccc(OC(C)=O)c1C2=O [HTB-02] | 5.13 µM (≈ 1.96 µg/mL) | 15.5 µM | – | – | – | – | – | – |
| O=C(OCCCCCl)c1cc(O)c2c(c1)C(=O)c1cccc(O)c1C2=O [HTB-03] | 2.56 µM (≈ 0.959 µg/mL) | > 171 µM | appeared stable | 66.3% | 92.8% | – | – | – |
| CC(=O)Oc1cccc2c1C(=O)c1c(OC(C)=O)cc(C(=O)OCCCCCl)cc1C2=O [HTB-04] | 3.55 µM (≈ 1.63 µg/mL) | 84 µM | – | 79.8% | 82.4% | limited solubility | – | – |
| CC1CCCC(C)C1OC(=O)c1cc(O)c2c(c1)C(=O)c1cccc(O)c1C2=O (stereo not shown) [HTB-05] | 3.9 µM (≈ 1.54 µg/mL) | > 162 µM | – | 42.9% | 67.8% | – | – | – |
| CC(=O)Oc1cccc2c1C(=O)c1c(OC(C)=O)cc(C(=O)OC3C(C)CCCC3C)cc1C2=O (stereo not shown) [HTB-06] | 7.31 µM (≈ 3.5 µg/mL) | 58.1 µM | – | – | – | – | – | – |
| NNC(=O)c1ccncc1 [INH, isoniazid, reference compound] | 0.26 µM (≈ 0.0357 µg/mL) | – | – | – | – | – | – | – |
| O=C(O)c1cc(O)c2c(c1)C(=O)c1cccc(O)c1C2=O [Rhein, rhein] | 106 µM (≈ 30.2 µg/mL) | 182 µM | – | – | – | – | does not exhibit anti-tubercular activity | does not inhibit Mtb |
